Data reported in PubChem BioAssay AID1963428 (Molecular Pharmacology Branch, DTP, NCI, 2024).

Tested on: 171881-019-R-J1-PDC complex spheroid growth, % test/control
Assay: Anticancer human tumor 171881-019-R-J1-PDC patient-derived invasive breast carcinoma cell line growth inhibition [Asc]
Settings: for IC50: curve of first compound; for viability, T/C: stronger effect = lower value
Outline: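 Spheroid model: tumor line + HUVEC + hMSC. Single agents and combinations; top conc. at/near clinical Cmax (10 microM if undetermined), half-log dilutions. DMSO stocks at 800-fold test concentration.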

[1] = second compound 0.1 µM, first compound 0.0316 µM
[2] = second compound 0.1 µM, first compound 0.1 µM
[3] = second compound 0.1 µM, first compound 0.316 µM
[4] = second compound 0.1 µM, first compound 1 µM
[5] = second compound 0.316 µM, first compound 0.0316 µM
[6] = second compound 0.316 µM, first compound 0.1 µM
[7] = second compound 0.316 µM, first compound 0.316 µM
[8] = second compound 0.316 µM, first compound 1 µM
[9] = second compound 1 µM, first compound 0.0316 µM
[10] = second compound 1 µM, first compound 0.1 µM
[11] = second compound 1 µM, first compound 0.316 µM
[12] = second compound 1 µM, first compound 1 µM
[13] = second compound 3.16 µM, first compound 0.0316 µM
[14] = second compound 3.16 µM, first compound 0.1 µM
[15] = second compound 3.16 µM, first compound 0.316 µM
[16] = second compound 3.16 µM, first compound 1 µM
[17] = second compound 10 µM, first compound 0.0316 µM
[18] = second compound 10 µM, first compound 0.1 µM
[19] = second compound 10 µM, first compound 0.316 µM
[20] = second compound 10 µM, first compound 1 µM
[21] = second compound 0.1 µM, first compound 0.00316 µM
[22] = second compound 0.1 µM, first compound 0.01 µM
[23] = second compound 0.316 µM, first compound 0.00316 µM
[24] = second compound 0.316 µM, first compound 0.01 µM
[25] = second compound 1 µM, first compound 0.00316 µM
[26] = second compound 1 µM, first compound 0.01 µM
[27] = second compound 3.16 µM, first compound 0.00316 µM
[28] = second compound 3.16 µM, first compound 0.01 µM
[29] = second compound 10 µM, first compound 0.00316 µM
[30] = second compound 10 µM, first compound 0.01 µM
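For viability, T/C in this document: spheroids exposed to compounds for 7 days.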

Compound: C=CC(=O)N1CCN(c2nc(=O)n(-c3c(C)ccnc3C(C)C)c3nc(-c4c(O)cccc4F)c(F)cc23)C(C)C1 (stereo not given) + Cc1c(S(C)(=O)=O)c(-c2cc(F)cc(N3CCN(c4ccc(NS(=O)(=O)c5ccc(NC(CCN6CCC(C(=O)OCCCP(=O)(O)O)CC6)CSc6ccccc6)c(S(=O)(=O)C(F)(F)F)c5)cc4)CC3)c2)c(-c2ccc(Cl)cc2)n1C(C)C
- IC50 (second compound 0.1 µM): > 10000 nM
- IC50 (second compound 0.316 µM): > 10000 nM
- IC50 (second compound 1 µM): > 10000 nM
- IC50 (second compound 3.16 µM): > 10000 nM
- IC50 (second compound 10 µM): > 10000 nM
- viability, T/C [1]: 92.3%
- viability, T/C [2]: 111%
- viability, T/C [3]: 100%
- viability, T/C [4]: 86%
- viability, T/C (second compound 0.1 µM, first compound 3.16 µM): 84.9%
- viability, T/C (second compound 0.1 µM, first compound 10 µM): 79.6%
- viability, T/C [5]: 128%
- viability, T/C [6]: 114%
- viability, T/C [7]: 118%
- viability, T/C [8]: 86.9%
- viability, T/C (second compound 0.316 µM, first compound 3.16 µM): 78.9%
- viability, T/C (second compound 0.316 µM, first compound 10 µM): 87.7%
- viability, T/C [9]: 119%
- viability, T/C [10]: 123%
- viability, T/C [11]: 125%
- viability, T/C [12]: 104%
- viability, T/C (second compound 1 µM, first compound 3.16 µM): 78.7%
- viability, T/C (second compound 1 µM, first compound 10 µM): 90.9%
- viability, T/C [13]: 153%
- viability, T/C [14]: 122%
- viability, T/C [15]: 138%
- viability, T/C [16]: 133%
- viability, T/C (second compound 3.16 µM, first compound 3.16 µM): 99.2%
- viability, T/C (second compound 3.16 µM, first compound 10 µM): 99%
- viability, T/C [17]: 165%
- viability, T/C [18]: 186%
- viability, T/C [19]: 165%
- viability, T/C [20]: 187%
- viability, T/C (second compound 10 µM, first compound 3.16 µM): 133%
- viability, T/C (second compound 10 µM, first compound 10 µM): 105%

Compound: COc1c(OCCCN2CCOCC2)ccc2c3n(c(=NC(=O)c4cnc(N)nc4)nc12)CCN3 + Cc1c(S(C)(=O)=O)c(-c2cc(F)cc(N3CCN(c4ccc(NS(=O)(=O)c5ccc(NC(CCN6CCC(C(=O)OCCCP(=O)(O)O)CC6)CSc6ccccc6)c(S(=O)(=O)C(F)(F)F)c5)cc4)CC3)c2)c(-c2ccc(Cl)cc2)n1C(C)C
- IC50 (second compound 0.1 µM): 21.8 nM
- IC50 (second compound 0.316 µM): 13.8 nM
- IC50 (second compound 1 µM): 9.37 nM
- IC50 (second compound 3.16 µM): 4.99 nM
- IC50 (second compound 10 µM): 4.6 nM
- viability, T/C [21]: 148%
- viability, T/C [22]: 91.5%
- viability, T/C [1]: 30.1%
- viability, T/C [2]: 7.28%
- viability, T/C [3]: 1.11%
- viability, T/C [4]: 0.49%
- viability, T/C [23]: 129%
- viability, T/C [24]: 62.6%
- viability, T/C [5]: 17%
- viability, T/C [6]: 5.34%
- viability, T/C [7]: 0.77%
- viability, T/C [8]: 0.4%
- viability, T/C [25]: 102%
- viability, T/C [26]: 46.9%
- viability, T/C [9]: 12.7%
- viability, T/C [10]: 3.92%
- viability, T/C [11]: 0.8%
- viability, T/C [12]: 0.9%
- viability, T/C [27]: 64.2%
- viability, T/C [28]: 28.2%
- viability, T/C [13]: 8.79%
- viability, T/C [14]: 1.69%
- viability, T/C [15]: 0.26%
- viability, T/C [16]: 0.49%
- viability, T/C [29]: 63.7%
- viability, T/C [30]: 21.6%
- viability, T/C [17]: 9.29%
- viability, T/C [18]: 0.84%
- viability, T/C [19]: 0.24%
- viability, T/C [20]: 1.51%

Compound: NC(=O)C(=Cn1cnc(-c2cc(C(F)(F)F)cc(C(F)(F)F)c2)n1)c1cncnc1 + Cc1c(S(C)(=O)=O)c(-c2cc(F)cc(N3CCN(c4ccc(NS(=O)(=O)c5ccc(NC(CCN6CCC(C(=O)OCCCP(=O)(O)O)CC6)CSc6ccccc6)c(S(=O)(=O)C(F)(F)F)c5)cc4)CC3)c2)c(-c2ccc(Cl)cc2)n1C(C)C
- IC50 (second compound 0.1 µM): 25.4 nM
- IC50 (second compound 0.316 µM): 18.8 nM
- IC50 (second compound 1 µM): 17.3 nM
- IC50 (second compound 3.16 µM): 13.5 nM
- IC50 (second compound 10 µM): 9.39 nM
- viability, T/C (second compound 0.1 µM, first compound 0.000949 µM): 102%
- viability, T/C (second compound 0.1 µM, first compound 0.003 µM): 108%
- viability, T/C (second compound 0.1 µM, first compound 0.00949 µM): 116%
- viability, T/C (second compound 0.1 µM, first compound 0.03 µM): 40.1%
- viability, T/C (second compound 0.1 µM, first compound 0.0949 µM): 4.69%
- viability, T/C (second compound 0.1 µM, first compound 0.3 µM): 1.77%
- viability, T/C (second compound 0.316 µM, first compound 0.000949 µM): 111%
- viability, T/C (second compound 0.316 µM, first compound 0.003 µM): 159%
- viability, T/C (second compound 0.316 µM, first compound 0.00949 µM): 84.5%
- viability, T/C (second compound 0.316 µM, first compound 0.03 µM): 28.7%
- viability, T/C (second compound 0.316 µM, first compound 0.0949 µM): 2.73%
- viability, T/C (second compound 0.316 µM, first compound 0.3 µM): 1.39%
- viability, T/C (second compound 1 µM, first compound 0.000949 µM): 144%
- viability, T/C (second compound 1 µM, first compound 0.003 µM): 135%
- viability, T/C (second compound 1 µM, first compound 0.00949 µM): 86.1%
- viability, T/C (second compound 1 µM, first compound 0.03 µM): 16.6%
- viability, T/C (second compound 1 µM, first compound 0.0949 µM): 2.27%
- viability, T/C (second compound 1 µM, first compound 0.3 µM): 1.86%
- viability, T/C (second compound 3.16 µM, first compound 0.000949 µM): 171%
- viability, T/C (second compound 3.16 µM, first compound 0.003 µM): 151%
- viability, T/C (second compound 3.16 µM, first compound 0.00949 µM): 65.4%
- viability, T/C (second compound 3.16 µM, first compound 0.03 µM): 14.7%
- viability, T/C (second compound 3.16 µM, first compound 0.0949 µM): 1.2%
- viability, T/C (second compound 3.16 µM, first compound 0.3 µM): 0.46%
- viability, T/C (second compound 10 µM, first compound 0.000949 µM): 183%
- viability, T/C (second compound 10 µM, first compound 0.003 µM): 135%
- viability, T/C (second compound 10 µM, first compound 0.00949 µM): 47.7%
- viability, T/C (second compound 10 µM, first compound 0.03 µM): 13.5%
- viability, T/C (second compound 10 µM, first compound 0.0949 µM): 1.03%
- viability, T/C (second compound 10 µM, first compound 0.3 µM): 0.35%

Compound: NC1CCC(NC2CC2c2ccccc2)CC1 (stereo not given) + Cc1c(S(C)(=O)=O)c(-c2cc(F)cc(N3CCN(c4ccc(NS(=O)(=O)c5ccc(NC(CCN6CCC(C(=O)OCCCP(=O)(O)O)CC6)CSc6ccccc6)c(S(=O)(=O)C(F)(F)F)c5)cc4)CC3)c2)c(-c2ccc(Cl)cc2)n1C(C)C
- IC50 (second compound 0.1 µM): > 100 nM
- IC50 (second compound 0.316 µM): > 100 nM
- IC50 (second compound 1 µM): > 100 nM
- IC50 (second compound 3.16 µM): > 100 nM
- IC50 (second compound 10 µM): > 100 nM
- viability, T/C (second compound 0.1 µM, first compound 0.000316 µM): 85.6%
- viability, T/C (second compound 0.1 µM, first compound 0.001 µM): 83%
- viability, T/C [21]: 85.6%
- viability, T/C [22]: 81%
- viability, T/C [1]: 88.7%
- viability, T/C [2]: 91.8%
- viability, T/C (second compound 0.316 µM, first compound 0.000316 µM): 99.9%
- viability, T/C (second compound 0.316 µM, first compound 0.001 µM): 107%
- viability, T/C [23]: 90.5%
- viability, T/C [24]: 88.2%
- viability, T/C [5]: 96%
- viability, T/C [6]: 84.1%
- viability, T/C (second compound 1 µM, first compound 0.000316 µM): 97.6%
- viability, T/C (second compound 1 µM, first compound 0.001 µM): 101%
- viability, T/C [25]: 91.5%
- viability, T/C [26]: 82.6%
- viability, T/C [9]: 84%
- viability, T/C [10]: 92.4%
- viability, T/C (second compound 3.16 µM, first compound 0.000316 µM): 134%
- viability, T/C (second compound 3.16 µM, first compound 0.001 µM): 99.3%
- viability, T/C [27]: 93%
- viability, T/C [28]: 88.3%
- viability, T/C [13]: 88.1%
- viability, T/C [14]: 104%
- viability, T/C (second compound 10 µM, first compound 0.000316 µM): 154%
- viability, T/C (second compound 10 µM, first compound 0.001 µM): 127%
- viability, T/C [29]: 111%
- viability, T/C [30]: 115%
- viability, T/C [17]: 121%
- viability, T/C [18]: 92.3%
